Results: US20260124278A1, “COMPOSITIONS AND METHODS FOR TREATMENT OF NEUROLOGICAL DISORDERS” (D&D Pharmatech Inc., priority 2022, published 2026)

Columns and labels:
trypsin = experiment: in vitro stability against trypsin; format: in vitro ADME; conditions: 0 min
FaSSIF/pancreatin = experiment: in vitro stability against FaSSIF/pancreatin; format: in vitro ADME; conditions: 0 min
primary microglia = experiment: α-syn PFF induced microglial activation, cytokine mRNA by qPCR; format: cell-based, mouse; conditions: agonist 2 μM, 150 nM PFF for 4 h
Description: Mouse microglia isolated from postnatal day 2 CD1 mouse brain were obtained from ScienCell Research Laboratories (M1900, Carlsbad, CA). […] Pre-condition: 24 hrs non-serum condition.
Total RNA from cultured cells was extracted with a RNA isolation kit (Qiagen, Valencia, CA, USA) following the instructions provided by the company. RNA concentration was measured spectrophotometrically using a NanoDrop 2000 (Biotek, Winooski, VT, USA). Subsequently, 1-2 μg of total RNA was reverse transcribed to cDNA using the High-Capacity cDNA Reverse Transcription System (Life Technologies, Grand Island, NY, USA). Comparative qPCR was performed in duplicate or triplicate for each sample using fast SYBR Green Master Mix (Life Technologies) and ViiA 7 Real-Time PCR System (Applied Biosystems, Foster City, CA, USA). The expression levels of target genes were normalized to the expression of Actb and calculated based on the comparative cycle threshold Ct method (2^−ΔΔCt).

[1] = in vivo; cited from earlier work

Compound | Remaining amount (%) after trypsin treatment (trypsin) | Remaining amount (%) after FaSSIF/Pancreatin treatment (FaSSIF/pancreatin) | α-syn PFF induced mRNA expression of TNF-α, IL-1α, IL-1β, C1q and IL-6 (primary microglia) | half-life [1]
CC[C@H](C)[C@H](NC(=O)[C@H](Cc1ccccc1)NC(=O)[C@H](CCC(=O)O)NC(=O)[C@H](CCCCNC(=O)COCCOCCNC(=O)COCCOCCNC(=O)CC[C@H](NC(=O)CCCCCCCCCCCCCCCCC(=O)O)C(=O)O)NC(=O)[C@H](C)NC(=O)[C@H](C)NC(=O)[C@H](CCC(N)=O)NC(=O)CNC(=O)[C@H](CCC(=O)O)NC(=O)[C@H](CC(C)C)NC(=O)[C@H](Cc1ccc(O)cc1)NC(=O)[C@H](CO)NC(=O)[C@H](CO)NC(=O)[C@@H](NC(=O)[C@H](CC(=O)O)NC(=O)[C@H](CO)NC(=O)[C@@H](NC(=O)[C@H](Cc1ccccc1)NC(=O)[C@@H](NC(=O)CNC(=O)[C@H](CCC(=O)O)NC(=O)C(C)(C)NC(=O)[C@@H](N)Cc1cnc[nH]1)[C@@H](C)O)[C@@H](C)O)C(C)C)C(=O)N[C@@H](C)C(=O)N[C@@H](Cc1c[nH]c2ccccc12)C(=O)N[C@@H](CC(C)C)C(=O)N[C@H](C(=O)N[C@@H](CCCNC(=N)N)C(=O)NCC(=O)N[C@@H](CCCNC(=N)N)C(=O)NCC(=O)O)C(C)C [Semaglutide] | 100.0% | 100.0% | – | –
NLY01: long-acting PEGylated form of exenatide | – | – | significantly reduces | 88 h
